US20240125767A1, “METHOD FOR EVALUATING DRUG TOXICITY” (Public University Corporation Yokohama City University, priority 2019, published 2024)

Tested on: DILI patient-derived organoid (liver organoid from iPS cells 16-24)
Protocol: (§1) Each of iPS cells derived from human healthy person (1383D2; Kyoto University iPS Research Institute) and iPS cells derived from patients with drug-induced liver injury (16-24; Yokohama City University) were cultured at 5% CO2 and 37° C. for 3 days in a medium obtained by adding 1% B-27 Supplements (GIBCO), BMP4 (25 ng/ml) and CHIR99021 (8 μM) to DMEM/F-12 (Gibco) (10 ml), to induce mesodermal cells.
Each of iPS cells derived from human healthy person (1383D2; Kyoto University iPS Research Institute) and iPS cells derived from patients with drug-induced liver injury (16-24; Yokohama City University) were cultured at 5% CO2 and 37° C. for 5 days in a medium obtained by adding Wnt3a (50 ng/mL) and activin A (100 ng/ml) to a basal medium RPMI (FUJIFILM Corporation) (2 ml), to induce endodermal progenitor cells.
as §1, with “μM) to a basal mixed medium DMEM/F-12 (Gibco)” for “μM) to DMEM/F-12 (Gibco)”, “induce mesodermal progenitor cells. […]” for “induce mesodermal cells.”, “progenitor cells. […]” for “mesodermal cells.”

## CC1(C)S[C@@H]2[C@H](NC(=O)[C@H](N)c3ccc(O)cc3)C(=O)N2[C@H]1C(=O)O [Amoxicillin trihydrate, amoxicillin trihydrate]
  Toxicity to liver organoid produced using cells derived from a DILI patient, co-cultured with blood cells (result in words): DILI was not observed
